# Results reported in US8921382B2, “Thiazolo[5,4-d] pyrimidines and their use as agrochemicals” (Dow AgroSciences, LLC., priority 2010, dated 2014).
# Tests used:
# [1] = tested on: Pseudoperonospora cubensis; experiment: Cucumber Downy Mildew foliar spray test, inoculated one day after treatment; type: in vivo; conditions: applied to foliage at 200 ppm, cucumber plants, read-out: Activity against Fungal Diseases PSPECU (percent disease control)
# Experimental: Fungicide activity data are the level (in percent) at which the given disease was controlled when the given compound was applied to the foliage of the plants at 200 ppm. In a few cases (noted in the table) the compound was applied to the plants at 25 ppm or 3 ppm. The plants were inoculated with the fungus one day after treatment. ***=80-100% control; **=50-79% control; *=0-49% control. […] The activity of the compounds as effective fungicides was determined by applying the compounds to plants and observing control of fungal disease. […] All plants were inoculated with spores of the fungus the day after treatment, then incubated in an environment conducive to disease development. Disease severity was evaluated 4 to 25 days (d) later, depending on the speed of disease development. The following experiments were performed in the laboratory to determine the fungicidal efficacy of the compounds of the invention. Cucumber Downy Mildew (causal agent Pseudoperonospora cubensis; Bayer code […]): Cucumber plants (variety 'Bush Champion' or 'Bush Pickle Hybrid') were grown from seed in a soil-less peat-based potting mixture (Metromix) until the first true leaf was 20-80% expanded. Each pot contained 1 seedling. These plants were sprayed until wet with the formulated test compound. On the following day, the leaves were inoculated with an aqueous suspension of downy mildew sporangia and the plants were kept in high humidity for one day to permit sporangia to germinate and infect the leaf. The plants were then incubated in a growth chamber until disease developed on untreated control plants. […] The effectiveness of the test compounds at controlling disease when sprayed on leaves was determined by assessing the severity of disease on treated plants, then converting the severity to percent control based on the level of disease on untreated, inoculated plants.
# [2] = tested on: Puccinia recondita tritici; experiment: Leaf Rust of Wheat foliar spray test, inoculated one day after treatment; type: in vivo; conditions: applied to foliage at 200 ppm, wheat plants, read-out: Activity against Fungal Diseases PUCCRT (percent disease control)
# Experimental: (§1) Fungicide activity data are the level (in percent) at which the given disease was controlled when the given compound was applied to the foliage of the plants at 200 ppm. In a few cases (noted in the table) the compound was applied to the plants at 25 ppm or 3 ppm. The plants were inoculated with the fungus one day after treatment. ***=80-100% control; **=50-79% control; *=0-49% control. […] The activity of the compounds as effective fungicides was determined by applying the compounds to plants and observing control of fungal disease. […] All plants were inoculated with spores of the fungus the day after treatment, then incubated in an environment conducive to disease development. Disease severity was evaluated 4 to 25 days (d) later, depending on the speed of disease development. The following experiments were performed in the laboratory to determine the fungicidal efficacy of the compounds of the invention. […] Each pot contained 3-8 seedlings. These plants were sprayed until wet with the formulated test compounds. On the following day, the leaves were inoculated with an aqueous spore suspension of Puccinia recondita tritici and the plants were kept in high humidity overnight to permit spores to germinate and infect the leaf. The plants were then transferred to a greenhouse until disease developed on untreated control plants. […] The effectiveness of the test compounds at controlling disease when sprayed on leaves was determined by assessing the severity of disease on treated plants, then converting the severity to percent control based on the level of disease on untreated, inoculated plants.
# Pyricularia oryzae = experiment: whole plant or invertebrate; type: in vivo; conditions: foliar, read-out: Activity against Fungal Diseases PYRIOR (percent disease control)
# Septoria tritici = experiment: Septoria Blotch of Wheat foliar spray test, inoculated one day after treatment; type: in vivo; conditions: Zymoseptoria tritici, wheat plants, read-out: Activity against Fungal Diseases SEPTTR (percent disease control); for pest or weed control at 25 ppm: Tested at 25 ppm; for pest or weed control at 200 ppm: applied to foliage at 200 ppm
# Experimental: as §1, with “3-10” for “3-8”, “compound.” for “compounds.”, “Septoria” for “Puccinia recondita”, “(one day in a dark dew chamber followed by two days in a lighted dew chamber)” for “overnight”
# Caenorhabditis elegans = conditions: Application rate 10 micrograms per milliliter agar; evaluated after 24 h at 20° C.
# Experimental: The activity of the compounds against Caenorhabditis elegans was determined by dissolving compounds in DMSO, then applying them to petri dishes containing Nematode Growth Medium agar to a final concentration of 10 micrograms (μg) compound per milliliter agar. Escherichia coli bacteria were grown on the plates to provide a food source for the larvae of Caenorhabditis elegans. The bacteria were heat-killed at 65° C. before compounds were added to the plates.
# The plates with compound and heat-killed bacteria were infested with 10 microliter (μL) drops containing eggs from wild-type Caenorhabditis elegans worms. Adult worms were dissolved in potassium hydroxide (KOH) and bleach and washed in Ringers solution to generate the egg suspension. Each compound was screened with approximately 400 eggs, divided between two petri dishes. Egg hatching was evaluated after 24 h at 20° C. Mortality was averaged over the two plates.
Molecule,pest or weed control at 200 ppm [1] [%],pest or weed control at 200 ppm [2] [%],pest or weed control at 200 ppm (Pyricularia oryzae) [%],pest or weed control at 25 ppm (Septoria tritici) [%],Percent mortality (Caenorhabditis elegans) [%],pest or weed control at 200 ppm (Septoria tritici) [%],melting point [°C]
"COc1cc(CCNc2ncnc3scnc23)ccc1Oc1ccncc1C(F)(F)F [Compound 31, {2-[3-methoxy-4-(3-trifluoromethylpyridin-4-yloxy)-phenyl]-ethyl}-thiazolo[5,4-d]pyrimidin-7-ylamine]",50 to 79,80 to 100,80 to 100,80 to 100,–,–,–
ivermectin,–,–,–,–,95,–,–
"COc1cc(CCNc2ncnc3scnc23)ccc1Oc1cc(C(F)(F)F)cc[n+]1[O-] [Compound 42, {2-[3-methoxy-4-(1-oxy-4-trifluoromethylpyridin-2-yloxy)-phenyl]-ethyl}-thiazolo[5,4-d]pyrimidin-7-ylamine]",80 to 100,80 to 100,80 to 100,–,–,80 to 100,–
"COc1cc(CCNc2ncnc3scnc23)ccc1Oc1ccc(C(F)(F)F)cc1F [Compound 30, {2-[4-(2-fluoro-4-trifluoromethylphenoxy)-3-methoxyphenyl]-ethyl}-thiazolo[5,4-d]pyrimidin-7-ylamine]",80 to 100,80 to 100,80 to 100,80 to 100,–,–,–
"FC(F)(F)c1cccnc1Oc1ccc(CCNc2ncnc3scnc23)cc1 [Compound 8, thiazolo[5,4-d]pyrimidin-7-yl-{2-[4-(3-trifluoromethylpyridin-2-yloxy)-phenyl]-ethyl}-amine]",80 to 100,80 to 100,80 to 100,–,–,80 to 100,–
"Fc1cc(C(F)(F)F)cnc1Oc1ccc(CCNc2ncnc3scnc23)cc1 [Compound 61, {2-[4-(3-fluoro-5-trifluoromethylpyridin-2-yloxy)-phenyl]-ethyl}-thiazolo[5,4-d]pyrimidin-7-ylamine]",80 to 100,80 to 100,80 to 100,50 to 79,–,–,–
"COc1cc(CCNc2ncnc3scnc23)ccc1O [Compound 12, 2-methoxy-4-[2-(thiazolo[5,4-d]pyrimidin-7-ylamino)-ethyl]-phenol]",–,–,–,–,–,–,151 to 154
"Fc1cc(CCNc2ncnc3scnc23)ccc1Oc1cc(C(F)(F)F)ccn1 [Compound 41, {2-[3-fluoro-4-(4-trifluoromethylpyridin-2-yloxy)-phenyl]-ethyl}-thiazolo[5,4-d]pyrimidin-7-ylamine]",80 to 100,80 to 100,80 to 100,–,–,80 to 100,–
"FC(F)(F)c1ccncc1Oc1ccc(CCNc2ncnc3scnc23)cc1 [Compound 43, thiazolo[5,4-d]pyrimidin-7-yl-{2-[4-(4-trifluoromethylpyridin-3-yloxy)-phenyl]-ethyl}-amine]",80 to 100,80 to 100,80 to 100,–,–,80 to 100,–
"CC(Cc1ccc(Oc2cc(C(F)(F)F)ccn2)cc1)Nc1ncnc2scnc12 (stereo not drawn) [Compound 18, {1-methyl-2-[4-(4-trifluoromethylpyridin-2-yloxy)-phenyl]-ethyl}-thiazolo[5,4-d]pyrimidin-7-ylamine]",80 to 100,80 to 100,80 to 100,–,–,80 to 100,–
"Cc1cc(Oc2cc(C(F)(F)F)ccn2)ccc1CCNc1ncnc2scnc12 [Compound 59, {2-[2-methyl-4-(4-trifluoromethylpyridin-2-yloxy)-phenyl]-ethyl}-thiazolo[5,4-d]pyrimidin-7-ylamine]",80 to 100,80 to 100,80 to 100,–,–,80 to 100,–
"FC(F)(F)c1ccnc(Oc2ccc(CCNc3ncnc4scnc34)cc2)c1 [Compound 7, thiazolo[5,4-d]pyrimidin-7-yl-{2-[4-(4-trifluoromethylpyridin-2-yloxy)-phenyl]-ethyl}-amine]",80 to 100,80 to 100,80 to 100,–,–,80 to 100,–
